Experimental data reported in patent US20040171086A1, “Selective modulation of TLR-mediated biological activity” (3M Innovative Properties Company, priority 2003, published 2004).

Tests used:
Format in all cases: cell-based, human
Myeloid DCs = test: IL-12 production by myeloid DCs (IGEN analysis)
Procedure: (§1) The blood myeloid dendritic cells (mDC) were isolated from the BDCA-4 negative cell fraction using the Miltenyi Microbead technology system (Miltenyi BioTec, Auburn, Calif.). Cells were resuspended in 4° C. separation buffer (PBS- pH 7.2, 0.5% BSA-2.5 gm, 2 mM 0.5M EDTA) at 20 μl per 10^7 total cells. […] The cells were resuspended in 500 μL of separation buffer per 10^8 total cells. […] BDCA-1^+mDCs were enriched using the Miltenyi Automacs POSSELD software. The cells retained in the column were eluted into a sterile 50 mL polystyrene conical tube.
(§2) Compounds, reconstituted in dimethyl sulfoxide (DMSO, sterile cell culture grade, Sigma Chemical Co., St. Louis, Mo.) were added at 2× their final concentration to a 96-well flat-bottom sterile tissue culture polystyrene plate (Benton Dickinson Labware, Franklin Lakes, N.J.). Cells were then added at 2× the final concentration (final cell concentration is 1×10^6 cells/mL). Plates were incubated for 16-24 hours at 37° C., 5% CO2. After incubation, plates were centrifuged at 1000 RPM for 10 minutes at 25° C. Supernatants were transferred to a 0.75 mL sterile polypropylene Matrix box (Matrix, Hudson, N.Y.) and stored at −20° C. for future cytokine analysis.
IL-12 analysis was performed using IGEN analysis. More than two hours prior to performing the analysis, a 1:20 dilution of M-280 Streptavidin Dynabeads was prepared in IGEN buffer. Also, a 1 μg/mL solution of biotinylated IL-12 antibody (Cat. No. AHC7129, Biosource International, Camarillo, Calif.) in IGEN buffer was prepared. The 1:20 Dynabeads solution and the biotinylated antibody solution were mixed together and incubated 30 minutes at room temperature, then stored at 4° C. until the analysis was performed.
To perform the analysis, 50 μL of the Dynabeads/biotinylated antibody solution was added to each well of a 96-well plate. […] 25 μL of sample was added to each well, each sample containing either a standard dilution or an experimental sample.
The 96-well plate was tapped to mix the contents of each well, covered with plate sealer, and incubated at room temperature for 2.5 hours. Following the incubation, 100 μL of IGEN PBS Buffer was added to each well for a total assay volume of 200 μL and read on the IGEN M-8 Analyzer (IGEN International, Inc., Gaithersburg, Md.) using the hIL-12 protocol.

[1] = tested on: plasmacytoid dendritic cells (pDCs); test: Activation of plasmacytoid dendritic cells (CD80/HLA-DR staining, flow cytometry); details: two donors; 1 μM IRM or 3 μM CpG2216, 16-24 hours; HLA-DR positive with increased CD80; FIG. 2
Procedure: The cells were resuspended in 500 μL of separation buffer per 10^8 total cells. […] The cells retained in the column were eluted into a sterile 50 mL polystyrene conical tube.
as §2

[2] = tested on: myeloid dendritic cells (mDCs); test: Activation of blood myeloid dendritic cells (CD80/HLA-DR staining, flow cytometry); details: two donors; 1 μM IRM or 3 μM CpG2216, 16-24 hours; HLA-DR positive with increased CD80; FIG. 1
Procedure: as §1, §2

Structure (SMILES): CCCc1nc2c(N)nc3ccccc3c2s1 [IRM9, 2-propylthiazolo[4,5-c]quinolin-4-amine]
- IL-12 (Myeloid DCs; donor3, 3.0 μM IRM): 693 pg/mL

Structure (SMILES): CCc1nc2c(N)nc3ccccc3c2n1CCCCNS(C)(=O)=O [IRM36, N-[4-(4-amino-2-ethyl-1H-imidazo[4,5-c]quinolin-1-yl)butyl]methanesulfonamide]
- activation of plasmacytoid dendritic cells (pDCs) in vitro [1]: activated
- IL-12 (Myeloid DCs; donor3, 3.0 μM IRM): 57 pg/mL
- IL-12 (Myeloid DCs; donor4, 3.0 μM IRM): 77 pg/mL
- activation of myeloid dendritic cells (mDCs) in vitro [2]: not activated

Structure (SMILES): CCOCc1nc2c(N)nc3ccccc3c2n1CCCNC(=S)Nc1cccc(C#N)c1 [IRM37, N-{3-[4-amino-2-(ethoxymethyl)-1H-imidazo[4,5-c]quinolin-1-yl]propyl}-N′-(3-cyanophenyl)thiourea]
- IL-12 (Myeloid DCs; donor3, 3.0 μM IRM): 296 pg/mL
- IL-12 (Myeloid DCs; donor4, 3.0 μM IRM): 491 pg/mL

Structure (SMILES): Cc1nc2c(N)nc3ccccc3c2n1CCCCNC(=O)N1CCCCC1 [IRM38, N-[4-(4-amino-2-methyl-1H-imidazo[4,5-c]quinolin-1-yl)butyl]piperidine-1-carboxamide]
- IL-12 (Myeloid DCs; donor3, 3.0 μM IRM): 17 pg/mL
- IL-12 (Myeloid DCs; donor4, 3.0 μM IRM): 20 pg/mL

Structure (SMILES): CCc1nc2c(N)nc3ccccc3c2n1CC(C)(C)NC(=O)Nc1ccccc1 [IRM39, N-[2-(4-amino-2-ethyl-1H-imidazo[4,5-c]quinolin-1-yl)-1,1-dimethylethyl]-N′-phenylurea]
- IL-12 (Myeloid DCs; donor3, 3.0 μM IRM): 280 pg/mL
- IL-12 (Myeloid DCs; donor4, 3.0 μM IRM): 400 pg/mL

Structure (SMILES): CCOCc1nc2c(N)nc3ccccc3c2n1CC(C)(C)O [IRM40, 4-amino-α,α-dimethyl-2-ethoxymethyl-1H-imidazo[4,5-c]quinolin-1-ethanol]
- IL-12 (Myeloid DCs; donor3, 3.0 μM IRM): 517 pg/mL
- IL-12 (Myeloid DCs; donor4, 3.0 μM IRM): 765 pg/mL

Structure (SMILES): CC(C)Cn1cnc2c(N)nc3ccccc3c21 [IRM41, 1-(2-methylpropyl)-1H-imidazo[4,5-c]quinolin-4-amine]
- IL-12 (Myeloid DCs; donor3, 3.0 μM IRM): 17 pg/mL
- IL-12 (Myeloid DCs; donor4, 3.0 μM IRM): 39 pg/mL
